From article PMC4122495, “Small Molecule Deubiquitinase Inhibitors Promote Macrophage Anti-Infective Capacity” (PLoS ONE, 2014)
pEC50, pIC50: −log10 of the molar value. In brackets after ≈: the same amount, converted by molar mass. Entries after “also recorded” stand apart in the source; their conditions may differ. Read-outs that look alike come from different tables or passages of the source.

Experiments:
L. monocytogenes [1] = assay: Bacterial growth curve in BHI broth culture; format: cell-based, Listeria monocytogenes 10403S; details: 5 µM in BHI broth; for effect on Listeria growth in broth culture: absence of host cells, up to 8 h
Procedure: For bacterial growth curve in broth culture, an overnight culture of L. monocytogenes was back-diluted 1∶50 into BHI broth in the presence of 5 µM of compounds 1 to 4, 2.5 µM of compound 9 or equivalent volume of DMSO and incubated statically at 30°C for up to 8 h. At indicated time points (0, 2, 4, 6 and 8 h), a 50 µl-aliquot of bacteria was serially diluted and plated on LB agar to determine the number of CFU. To test the bactericidal properties of compound 9, an overnight culture of L. monocytogenes was back-diluted 1∶50 into BHI broth and allowed to grow at 37°C with shaking until an optical density at 600 nm (OD600) of ∼0.6–0.7 was obtained. Bacteria were then exposed to 1, 2.5 or 5 µM of compound 9 or equivalent volume of DMSO for 2 h at 4°C. After incubation, bacteria were serially diluted and plated on LB agar to determine CFU.

L. monocytogenes [2] = assay: L. monocytogenes intracellular growth assay in RAW264.7 macrophages; format: cell-based, Listeria monocytogenes 10403S; parameters: decrease in Listeria intracellular viability: concentration or dose not given beside the values; details: for pEC50: Listeria monocytogenes, RAW264.7 pre-treated with varying concentrations, then infected (MOI 1), intracellular CFU at 8 h post-infection, non-linear regression; for decrease in Listeria intracellular viability: RAW264.7 pre-treated at each compound's working condition (Fig. 2B, 5B); for decrease in Listeria intracellular viability / effect on L.m. intracellular growth (in words) / Decrease intracellular listeria viability (%): 8 h post-infection; for decrease in Listeria intracellular viability / Decrease intracellular listeria viability (%): vs DMSO; for effect on L.m. intracellular growth (in words): RAW264.7 pre-treated with compound; for Decrease intracellular listeria viability (%): conditions of Figure 2B and Figure 5B, maximal effective drug concentration used
Procedure: RAW264.7 cells were cultured at an initial density of 4×10^6 cells per 24-well plate and allowed to adhere overnight. Macrophages were treated with 2.5 or 5 µM of DUB inhibitors dissolved in dimethyl sulfoxide (DMSO) for 0.5 or 1 h or with equivalent volume of DMSO (vehicle control) at 37°C. For dose-response curves, macrophages were incubated with 5, 2.5, 1 and 0.5 µM of compounds 1, 3 and 4 or 2.5, 2, 1 and 0.5 µM of compounds 2 and 9 for 0.5 h or 1 h at 37°C. DUB inhibitors were removed from cell culture prior to infection by changing the medium. Macrophages were infected with L. monocytogenes at a multiplicity of infection (MOI) of 1 for 0.5 h at 37°C. The inoculum was removed by washing infected cells three times with Dulbecco’s phosphate-buffered saline (PBS), and the cells were incubated in medium containing 10 µg/ml of gentamicin to kill extracellular bacteria for the duration of the experiment. At 8 h post-infection, cells were lysed in 1 ml 0.1% Triton X-100, serially diluted and plated on Luria-Bertani (LB) agar to enumerate the number of colony forming units (CFU). CFU were counted using the Acolyte SuperCount (Microbiology International, Frederick, MD) plate reader and software. Results were normalized to DMSO-treated cells.
Supplementary file pone.0104096.s001.tif: Figure S1 Dose-response curves for selected compounds. RAW264.7 cells were incubated with DMSO (equivalent volume) or the varying concentrations of WP1130-derivatives for 0.5 h (compounds 1, 2, 4 and 9) or 1 h (compound 3). After incubation, the medium was removed, and cells were infected at 37°C for 0.5 h at an MOI of 1 with L. monocytogenes in the absence of additional drugs. Following the 0.5 h infection, cells were washed and gentamycin (10 µg/ml) was added to kill extracellular bacteria. Intracellular bacteria were enumerated at 8 h post-infection. The data represent percent of Listeria intracellular growth compared to DMSO-treated cells from three independent experiments performed in triplicate. Non-linear regression curves were performed using the GraphPad Prism software. (TIF) Click here for additional data file.

RAW264.7 cells = assay: WST-1 cell viability assay, conditions mimicking the bacterial infection protocol; format: cell-based, murine; details: then 8 h
Procedure: For cell viability assays in conditions that mimicked the bacterial infection protocol, RAW264.7 cells were cultured at an initial density of 4×10^6 cells per 96-well plate. Cells were treated with 2.5 or 5 µM DUB inhibitors dissolved in DMSO for 0.5 h or 1 h or with equivalent volume of DMSO. DUB inhibitors were removed after treatment by washing three times with PBS, and cells were incubated in culture media for 6.5 h at 37°C. The WST-1 reagent (Roche, San Francisco, CA), which measures mitochondrial dehydrogenase activity, was diluted 1 in 10 in media and cells were incubated at 37°C for an additional 1.5 h. The optical density at 440 nm (OD440) and 600 nm (OD600) was determined and results were normalized to DMSO-treated cells.

USP9x = system: USP9x; parameters: method as in Donato, N. J., manuscript in preparation; details: cell-based assay; ref Donato, N. J., manuscript in preparation; read-out: IC50 against USP9x; cited from earlier work
L. monocytogenes [3] = system: L. monocytogenes; parameters: method as in PMID 21911458; details: absence of host cells; cited from earlier work
[4] = Aqueous kinetic solubility; format: physicochemical; details: aqueous (not further specified)
MNV-1 = system: MNV-1; parameters: method as in PMID 22792064; details: pre-treatment of RAW264.7 cells; cited from earlier work

Compound	effect on Listeria growth in broth culture (L. monocytogenes [1])	pEC50 (L. monocytogenes [2])	decrease in Listeria intracellular viability (L. monocytogenes [2]) [%]	effect on L.m. intracellular growth (in words) (L. monocytogenes [2])	Decrease intracellular listeria viability (%) (L. monocytogenes [2])	cellular toxicity (WST-1 viability) (RAW264.7 cells; 5 µM, 1 h pre-treatment)	other results
CCC[C@@H](NC(=O)/C(C#N)=C/c1cccc(Br)n1)c1ccccc1 [Compound 2]	slight decrease in growth rate	5.75	44	Decrease L.m. intracellular growth	44.0	–	effect on total CFU per ml by 8 h in broth culture (L. monocytogenes [1]): without affecting the total number of colony forming unit (CFU) per ml by 8 h; cellular toxicity (WST-1 viability) (RAW264.7 cells; pre-treatment 0.5 or 1 h, led to working concentration of 2.5 µM for 0.5 h): slight increase in toxicity
CCC[C@H](NC(=O)/C(C#N)=C/c1cccc(F)n1)c1ccccc1 [Compound 4]	no effect	5.54	29.2	Decrease L.m. intracellular growth	29.2	–	–
CCC[C@H](NC(=O)/C(C#N)=C/c1cccc(Br)n1)c1ccccc1 [WP1130, reference compound]	–	–	69.9	Decrease L.m. intracellular growth	–	–	pIC50 (USP9x): 5.18; effect on Listeria growth in broth culture (L. monocytogenes [3]): no effect; solubility kinetic [4]: 3.2 µM (≈ 1.23 µg/mL); average decrease in MNV-1 titers compared to DMSO vehicle control (MNV-1): 2.0 log
CCCC(NC(=O)/C(C#N)=C/c1cccc(F)n1)c1ccc(OCCN2CCOCC2)cc1 (centres unmarked) [Compound 6]	–	–	–	No effect on L.m. intracellular growth	–	no significant toxicity	effect on L.m. intracellular growth (in words) (L. monocytogenes [2]; listed as compound 6): no significant effect on Listeria intracellular growth; also recorded: complete loss of activity
CCCC(NC(=O)/C(C#N)=C/c1cccnc1F)c1ccc(OCCN2CCOCC2)cc1 (centres unmarked) [Compound 7]	–	–	–	No effect on L.m. intracellular growth	–	no significant toxicity	effect on L.m. intracellular growth (in words) (L. monocytogenes [2]; listed as compound 7): no significant effect on Listeria intracellular growth; also recorded: complete loss of activity
CCC[C@H](NC(=O)/C=C/c1cccc(Br)n1)c1ccccc1 [Compound 8]	–	–	–	No effect on L.m. intracellular growth	–	no significant toxicity	effect on L.m. intracellular growth (in words) (L. monocytogenes [2]; listed as compound 8): no significant effect on Listeria intracellular growth; also recorded: no activity
CCC(NC(=O)/C(C#N)=C/c1cccc(Br)n1)c1ccc(O)cc1 (centres unmarked) [Compound 5]	–	–	25.4	Decrease L.m. intracellular growth	–	no significant toxicity	–
CCCC(NC(=O)/C(C#N)=C/c1cccc(Br)n1)c1ccc(OCOC)cc1 (centres unmarked) [Compound 3]	slight decrease in the in vitro growth	–	39.9	Decrease L.m. intracellular growth	39.9	no significant toxicity	–
CCC[C@H](NC(=O)/C(C#N)=C/c1cccc(Cl)n1)c1ccccc1 [Compound 1]	slight decrease in growth rate	5.96	54.7	Decrease L.m. intracellular growth	54.7	–	effect on total CFU per ml by 8 h in broth culture (L. monocytogenes [1]): without affecting the total number of colony forming unit (CFU) per ml by 8 h
